The source of these data is PubChem BioAssay (NCI).

Each structure is given as a SMILES string. Where “and” joins values, the source holds several entries; their conditions need not be identical. Equal values may be shown once.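 Assay format: 96-well plates, 48-hour exposure. Here, GI50 denotes the concentration required for 50% inhibition of growth. The concentration for full growth arrest is given as TGI.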

Among the test systems are MALME-3M melanoma; BT-549 breast; RPMI-8226 leukemia; NCI-H23 lung; MCF7 breast; SF-295 CNS; SR leukemia; OVCAR-8 ovarian; OVCAR-4 ovarian; SK-MEL-5 melanoma.
Common to all, as to assay: NCI anticancer screen, dose series, 48 h

Take `Cc1cc(S(N)(=O)=O)c(S/C(=N\Nc2ccc([N+](=O)[O-])cc2)c2ccc3ccccc3c2)cc1Cl`: the GI50 was 11700 nM in the assay with MALME-3M melanoma; 20500 nM with BT-549 breast; 37700 nM with RPMI-8226 leukemia; 16400 nM in the assay with NCI-H23 lung; 19900 nM in the assay with MCF7 breast; 20000 nM with SF-295 CNS. Also, the GI50 in the assay with SR leukemia is 42600 nM; in the assay with OVCAR-8 ovarian it was 14000 nM; in the assay on OVCAR-4 ovarian, 61100 nM; with SK-MEL-5 melanoma, 16500 nM. The TGI in the assay on MALME-3M melanoma is 25700 nM; in the assay on BT-549 breast it was 69700 nM; in the assay with RPMI-8226 leukemia, > 100000 nM; in the assay with NCI-H23 lung, 30200 nM; in the assay with MCF7 breast, > 100000 nM; in the assay with SF-295 CNS, 66200 nM. The TGI is > 100000 nM with SR leukemia, > 100000 nM in the assay on OVCAR-8 ovarian, > 100000 nM in the assay on OVCAR-4 ovarian and 36800 nM with SK-MEL-5 melanoma.

Turning to `O=C(Nc1cccc(-n2cc(-c3ccncc3)c(-c3ccc(O)c(Cl)c3)n2)c1)c1ccc(Cl)c(Cl)c1`, the GI50 in the assay on MALME-3M melanoma is 3580 nM; in the assay with BT-549 breast, 10400 nM; in the assay with RPMI-8226 leukemia, 3460 nM; in the assay on NCI-H23 lung, 15000 nM; in the assay with MCF7 breast it was 4080 nM; in the assay with SF-295 CNS, 5940 nM. In addition, the GI50 was 3570 nM in the assay with SR leukemia, 5060 nM in the assay with OVCAR-8 ovarian, 9900 nM in the assay with OVCAR-4 ovarian and 3900 nM in the assay on SK-MEL-5 melanoma. Besides, the TGI in the assay on MALME-3M melanoma was 21000 nM; in the assay on BT-549 breast, > 100000 nM; with RPMI-8226 leukemia, > 100000 nM; with NCI-H23 lung, > 100000 nM; in the assay with MCF7 breast, > 100000 nM; in the assay on SF-295 CNS, 86500 nM. Besides, the TGI in the assay with SR leukemia is > 100000 nM; in the assay with OVCAR-8 ovarian it was > 100000 nM; in the assay with OVCAR-4 ovarian, > 100000 nM; in the assay on SK-MEL-5 melanoma, 18700 nM.

In the case of `COc1ccc(Oc2cc(NCCC(F)(F)F)c3ncc(-c4ccc(C(=O)NC5CC5)c(C)c4)n3n2)c(F)c1F`, the GI50 in the assay on MALME-3M melanoma is 2080 nM; with BT-549 breast, 2140 nM; with RPMI-8226 leukemia, 656 nM; in the assay on NCI-H23 lung it was 4160 nM; in the assay on MCF7 breast, 822 nM; with SF-295 CNS it was 638 nM. The GI50 in the assay with SR leukemia was 224 nM; with OVCAR-8 ovarian, 73.8 nM; with OVCAR-4 ovarian, 3850 nM; in the assay with SK-MEL-5 melanoma, 4750 nM. Also, the TGI with MALME-3M melanoma is 54800 nM; in the assay on BT-549 breast it was 42100 nM; with RPMI-8226 leukemia it was > 100000 nM; in the assay on NCI-H23 lung, > 100000 nM; with MCF7 breast it was > 100000 nM; with SF-295 CNS, > 65300 nM. The TGI is 64300 nM in the assay with SR leukemia, 26900 nM in the assay on OVCAR-8 ovarian, > 87200 nM in the assay on OVCAR-4 ovarian and > 100000 nM in the assay on SK-MEL-5 melanoma.

Regarding `COC(=O)[C@@H](OC)[C@@H]1Cc2cc3cc(OC4CC(OC5CC(O)C(O)C(C)O5)C(O)C(C)O4)c(C)c(O)c3c(O)c2C(=O)[C@H]1OC1CC(OC2CC(OC3CC(C)(O)C(O)C(C)O3)C(O)C(C)O2)C(O)C(C)O1` (some centres undefined), the GI50 with MALME-3M melanoma was 34 nM; in the assay with BT-549 breast, 18.6 nM; with RPMI-8226 leukemia, 32.9 nM; in the assay on NCI-H23 lung, 34.5 nM; in the assay on MCF7 breast, 27.5 nM; with SF-295 CNS, 35.7 nM. For the same compound, the GI50 with SR leukemia is 10.3 nM; in the assay with OVCAR-8 ovarian, 39.3 nM; with OVCAR-4 ovarian, 41.3 nM; with SK-MEL-5 melanoma, 32.7 nM. The TGI in the assay on MALME-3M melanoma was 83.9 nM; in the assay with BT-549 breast it was 97.4 nM; in the assay with RPMI-8226 leukemia, 112 nM; in the assay with MCF7 breast it was > 16500 nM; in the assay on SF-295 CNS, > 5450 nM; in the assay on SR leukemia, > 16500 nM. Moreover, the values for the TGI in the assay with OVCAR-8 ovarian, in the assay on OVCAR-4 ovarian and with SK-MEL-5 melanoma were > 16500 nM, 553 nM and 89.2 nM, respectively.

Consider `Cc1ncc(-c2ccnc(Nc3ccc(S(C)(=O)=O)cc3)n2)n1C(C)C`, for which the GI50 is 2560 nM in the assay with MALME-3M melanoma; 925 nM with BT-549 breast; 1570 nM in the assay with RPMI-8226 leukemia; 1790 nM in the assay with NCI-H23 lung; 523 nM in the assay with MCF7 breast; 1670 nM in the assay on SF-295 CNS. The GI50 in the assay on SR leukemia was 222 nM; with OVCAR-8 ovarian, 1330 nM; with OVCAR-4 ovarian, 1870 nM; with SK-MEL-5 melanoma it was 811 nM. Further, the TGI in the assay with MALME-3M melanoma is 6040 nM; in the assay with BT-549 breast it was 7220 nM; with RPMI-8226 leukemia, 6180 nM; in the assay on NCI-H23 lung it was 7170 nM; in the assay on MCF7 breast, > 10000 nM; with SF-295 CNS it was 6750 nM. In addition, the TGI in the assay with SR leukemia is 2940 nM; in the assay with OVCAR-8 ovarian, > 10000 nM; with OVCAR-4 ovarian, > 8730 nM; in the assay with SK-MEL-5 melanoma, 3290 nM.

For `O=C1N[C@H]2[C@H](O)[C@H](O)[C@@H](O)[C@H](O)[C@@H]2c2cc3c(c(O)c21)OCO3`, the GI50 with MALME-3M melanoma was 266 nM and 275 nM; in the assay on BT-549 breast, 18.7 nM; in the assay with RPMI-8226 leukemia, 224 nM and 842 nM; with NCI-H23 lung, 241 nM and 375 nM; with MCF7 breast it was 20.8 nM; in the assay with SF-295 CNS, 346 nM and 495 nM. The GI50 in the assay with SR leukemia was 24.8 nM; in the assay on OVCAR-8 ovarian, 231 nM and 225 nM; in the assay on OVCAR-4 ovarian, 189 nM and 373 nM; in the assay with SK-MEL-5 melanoma, 127 nM. The TGI in the assay on BT-549 breast is 68.4 nM and 142 nM; with NCI-H23 lung, 712 nM and 2180 nM and 677 nM; in the assay with SF-295 CNS, 3510 nM and 352 nM; with SR leukemia, 511 nM and 3310 nM; in the assay on OVCAR-8 ovarian it was 1890 nM and 195 nM.

Regarding `CN(C)c1ccc(C(=C2C=CC(=[N+](C)C)C=C2)c2ccccc2Cl)cc1`, the GI50 is 266 nM in the assay with MALME-3M melanoma; 373 nM in the assay with BT-549 breast; 184 nM with RPMI-8226 leukemia; 282 nM with NCI-H23 lung; 237 nM in the assay with MCF7 breast; 89.4 nM in the assay on SF-295 CNS. The GI50 with SR leukemia is 235 nM; in the assay on OVCAR-8 ovarian it was 306 nM; in the assay on OVCAR-4 ovarian, 360 nM; in the assay on SK-MEL-5 melanoma, 301 nM. The TGI was 1050 nM in the assay with MALME-3M melanoma; 2560 nM with BT-549 breast; 893 nM in the assay with RPMI-8226 leukemia; 1280 nM with NCI-H23 lung; 899 nM with MCF7 breast; 401 nM in the assay with SF-295 CNS. Also, the TGI in the assay with SR leukemia is 898 nM; with OVCAR-8 ovarian, 1660 nM; in the assay with OVCAR-4 ovarian, 1600 nM; in the assay on SK-MEL-5 melanoma it was 1050 nM.

Take `O=c1cc(O)c2c(O)cc(O)cc2o1`: the TGI in the assay on MALME-3M melanoma, in the assay with BT-549 breast, in the assay on RPMI-8226 leukemia, in the assay on NCI-H23 lung, in the assay on MCF7 breast and in the assay on SF-295 CNS was > 100000 nM throughout. For the same compound, the TGI in the assay on SR leukemia, in the assay with OVCAR-8 ovarian, with OVCAR-4 ovarian and in the assay with SK-MEL-5 melanoma was > 100000 nM in each case.
